Source: paper PMC12305662, “Fragment-Based Development of Small Molecule Inhibitors Targeting Mycobacterium tuberculosis Cholesterol Metabolism” (Journal of Medicinal Chemistry, 2025)
Values after ≈ are worked out from the molar mass of the structure shown. Values joined by “and” are separate entries in the source; they are usually repeats but may differ in a detail not shown here. Identical values can stand only once. Like-named read-outs stand apart in the source and are kept apart here.

Tests used:
Mtb CDC1551 [1] = test: Extracellular Mtb growth on cholesterol, MABA MIC99; type: cell-based, Mycobacterium tuberculosis; details: read-out: MABA-MIC99 (W2) CDC1551, cholesterol
Mtb H37Rv [2] = test system: Mtb H37Rv
Protocol: (§1) (Mtb) H37Rv or CDC1551 strains were grown in Middlebrook 7H9 broth medium (Difco) supplemented with 0.3 g/L casitone, 0.81 g/L NaCl, 0.05% (v/v) tyloxapol, and either 97 mg/L cholesterol, 4 g/L glucose, or 0.2% glycerol. For inhibitor assays, a 10-fold serial dilution of the test compounds was made in the desired medium in duplicate rows of a 96-well plate. Mtb cells were then added to all the wells at the final concentration of 1 × 10^4 CFU, and plates were incubated at 37 °C for up to 15 days. Minimum inhibitory concentrations (MIC99) were determined using the Microplate Alamar Blue Assay (MABA) on day 15.
(§2) BacTiter Glo reagent (Promega) was added to microtiter plates (1:10 dilution) and luminescence was recorded after 15 min of incubation at room temperature. […] Isoniazid or p-amino salicylic acid were used as positive control compounds for all experiments. Reported MIC and IC50 values are the mean of duplicate treatments.

Mtb CDC1551 [3] = test: Depletion of intracellular ATP, Mtb on glucose; details: glucose as sole carbon source
Protocol: as §1, §2

Mtb CDC1551 [4] = test: Depletion of intracellular ATP (BacTiter Glo), Mtb on cholesterol; type: cell-based; details: Mycobacterium tuberculosis, cholesterol as sole carbon source
Mtb H37Rv [5] = test: Extracellular Mtb growth on cholesterol, MABA MIC99; type: cell-based, Mycobacterium tuberculosis; details: read-out: MABA-MIC99 (W2) H37Rv, cholesterol
Mtb H37Rv [6] = test: Depletion of intracellular ATP (BacTiter Glo), Mtb on cholesterol; type: cell-based, Mycobacterium tuberculosis; details: Mycobacterium tuberculosis, H37RV, cholesterol as sole carbon source
[7] = test system: Mtb H37Rv pATB45luc in THP-1 macrophages; test: microbe, parasite or virus in culture; type: cell-based; details: Mycobacterium tuberculosis, 120 h, 5 days post-compound treatment, mean ± SD n = 2, read-out: intracellular growth Mtb IC50
CYP125 [8] = molecular target: T1, CYP125 (Mycobacterium tuberculosis, UniProt P9WPP1); test: biochemical; type: binding; details: read-out: KD (μM) CYP125
CYP142 [9] = molecular target: T2, CYP142 (Mycobacterium tuberculosis, UniProt P9WPL5); test: biochemical
CYP125 [10] = molecular target: T1, CYP125; test: LC-MS substrate turnover assay (cholest-4-en-3-one); type: biochemical; details: for IC50: CYP125 0.5 μM, cholest-4-en-3-one 5 µM, LC-MS, read-out: CYP125A1 IC50; for Ki: estimated by Cheng-Prusoff, cholest-4-en-3-one Km CYP125 = 2.1 µM, read-out: CYP125A1 KI
Mtb (Erdman) = test: Extracellular Mtb (Erdman) growth on cholesterol-supplemented (0.01%) media, MABA; type: cell-based, Mycobacterium tuberculosis; details: MABA 1 week post-compound treatment, mean ± SD n = 3, read-out: mixed media IC50 (Erdman)
H37Rv Mtb = test: Extracellular Mtb growth, MABA MIC90 (drug susceptible strain); type: cell-based; details: Mycobacterium tuberculosis
[11] = test system: MDR-TB strain K26b00MR 113; test: microbe, parasite or virus in culture; type: cell-based, Mycobacterium tuberculosis; details: for MIC90: Mycobacterium tuberculosis
CYP142 [12] = molecular target: T2, CYP142; details: compound 100 µM, P450 5 µM
CYP125 [13] = molecular target: T1, CYP125; type: binding; details: compound 100 µM, P450 5 µM; high spin population; '-' = no HS maxima present
CYP142 [14] = molecular target: T2, CYP142
[15] = read-out: ATP IC50 (W1) CDC1551, glucose media, 1 week
[16] = read-out: ATP IC50 (W2) CDC1551, glucose media, 2 weeks
[17] = CDC1551, 168 h, 1 week post-compound treatment, read-out: ATP-IC50 (W1) CDC1551, cholesterol
[18] = CDC1551, 336 h, 2 weeks post-compound treatment, read-out: ATP-IC50 (W2) CDC1551, cholesterol
[19] = 168 h, 1 week post-compound treatment, read-out: ATP-IC50 (W1) H37Rv, cholesterol
[20] = 336 h, 2 weeks post-compound treatment, read-out: ATP-IC50 (W2) H37Rv, cholesterol
[21] = Mycobacterium tuberculosis, CDC1551, 336 h, cholesterol as sole carbon source, 2 weeks post-compound treatment
[22] = Mycobacterium tuberculosis, H37RV, 336 h, cholesterol as sole carbon source, 2 weeks post-compound treatment
[23] = cholesterol as sole carbon source, 2 weeks post-compound treatment

T1 sequence (P9WPP1 whole entry): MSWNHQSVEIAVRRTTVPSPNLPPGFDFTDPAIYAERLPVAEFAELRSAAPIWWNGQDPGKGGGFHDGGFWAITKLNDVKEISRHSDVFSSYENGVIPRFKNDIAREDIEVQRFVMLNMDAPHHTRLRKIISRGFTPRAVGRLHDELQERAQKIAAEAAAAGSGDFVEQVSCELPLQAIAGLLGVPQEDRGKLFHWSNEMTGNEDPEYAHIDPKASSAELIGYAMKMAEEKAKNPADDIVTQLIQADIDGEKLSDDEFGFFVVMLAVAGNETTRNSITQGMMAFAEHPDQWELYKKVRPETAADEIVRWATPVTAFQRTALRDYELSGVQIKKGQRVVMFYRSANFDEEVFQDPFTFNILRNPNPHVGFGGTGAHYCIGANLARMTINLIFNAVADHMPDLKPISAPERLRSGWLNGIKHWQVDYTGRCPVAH
T2 sequence (P9WPL5 whole entry): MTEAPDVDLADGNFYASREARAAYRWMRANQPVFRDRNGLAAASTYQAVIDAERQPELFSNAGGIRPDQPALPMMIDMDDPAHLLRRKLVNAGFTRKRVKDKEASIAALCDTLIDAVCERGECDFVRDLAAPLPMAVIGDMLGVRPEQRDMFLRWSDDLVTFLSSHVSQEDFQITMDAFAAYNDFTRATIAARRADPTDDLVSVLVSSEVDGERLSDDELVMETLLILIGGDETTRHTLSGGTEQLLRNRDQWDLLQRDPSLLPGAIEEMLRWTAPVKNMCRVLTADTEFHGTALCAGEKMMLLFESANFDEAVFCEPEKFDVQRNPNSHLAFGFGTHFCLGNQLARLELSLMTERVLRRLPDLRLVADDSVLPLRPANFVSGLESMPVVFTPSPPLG

Compound: Nc1ccc(C(=O)O)c(O)c1 [p-aminosalicylic acid, reference compound]
- MIC99 (Mtb CDC1551 [1]; Mycobacterium tuberculosis, CDC1551, 336 h): 0.39 µM (≈ 0.0597 µg/mL)
- IC50 (Mtb H37Rv [2]): < 0.04 µM and 0.07 µM
- IC50 (Mtb CDC1551 [3]; [15]): < 0.04 µM
- IC50 (Mtb CDC1551 [3]; [16]): 0.07 µM
- IC50 (Mtb CDC1551 [4]; [17]): 0.04 µM
- IC50 (Mtb CDC1551 [4]; [18]): 2.3 µM
- MIC99 (Mtb H37Rv [5]; Mycobacterium tuberculosis, H37RV, 336 h): 0.19 µM (≈ 0.0291 µg/mL)
- IC50 (Mtb H37Rv [6]; [19]): 0.04 µM
- IC50 (Mtb H37Rv [6]; [20]): 0.29 µM
- IC50 [7]: 2.4 ± 0.12 µM

Compound: C[C@@H](NC(=O)c1cccc(Cc2ccncc2)c1)c1ccccc1 [5h, (R)-N-(1-Phenylethyl)-3-(pyridin-4-ylmethyl)benzamide]
- MIC99 (Mtb CDC1551 [1]; [21]): 25 µM (≈ 7.91 µg/mL)
- IC50 (Mtb CDC1551 [3]; [15]): 19 µM
- IC50 (Mtb CDC1551 [4]; [17]): 2.3 µM
- IC50 (Mtb CDC1551 [4]; [18]): 38 µM
- MIC99 (Mtb H37Rv [5]; [22]): 25 µM (≈ 7.91 µg/mL)
- Kd (CYP125 [8]): 40 ± 2 µM
- IC50 (Mtb H37Rv [6]; [19]): 9.4 µM
- IC50 (Mtb H37Rv [6]; [20]): 19 µM
- Kd (CYP142 [9]): 3.3 ± 0.29 µM

Compound: O=C(NCc1ccc2[nH]ccc2c1)c1ccc(Cc2ccncc2)cc1 [5f, N-((1H-Indol-5-yl)methyl)-4-(pyridin-4-ylmethyl)benzamide]
- IC50 (CYP125 [10]): 3.6 ± 0.41 µM
- Ki (CYP125 [10]): 1.1 µM
- MIC99 (Mtb CDC1551 [1]; [21]): > 50 µM
- MIC99 (Mtb CDC1551 [1]; [23]): >50 µM
- IC50 (Mtb H37Rv [2]): > 50 µM
- IC50 (Mtb CDC1551 [3]; [15]): > 50 µM
- IC50 (Mtb CDC1551 [3]; [16]): > 50 µM
- IC50 (Mtb CDC1551 [4]; [17]): > 50 µM
- IC50 (Mtb CDC1551 [4]; [18]): > 50 µM
- MIC99 (Mtb H37Rv [5]; [22]): > 50 µM
- MIC99 (Mtb H37Rv [5]; [23]): >50 µM
- Kd (CYP125 [8]): 0.59 ± 0.24 µM
- IC50 (Mtb H37Rv [6]; [19]): > 50 µM
- IC50 (Mtb H37Rv [6]; [20]): > 50 µM
- Kd (CYP142 [9]): 3.2 ± 0.04 µM

Compound: CN(c1ccncc1)c1ccc(NC(=O)c2ccccc2)cc1 [5c, N-(4-(Methyl(pyridin-4-yl)amino)phenyl)benzamide]
- IC50 (CYP125 [10]): 26 ± 2.4 µM
- Ki (CYP125 [10]): 7.7 µM
- MIC99 (Mtb H37Rv [5]; [22]): > 50 µM
- MIC99 (Mtb H37Rv [5]; [23]): >50 µM
- Kd (CYP125 [8]): 7 ± 0.21 µM
- IC50 (Mtb H37Rv [6]; [19]): 9.4 µM
- IC50 (Mtb H37Rv [6]; [20]): 19 µM
- Kd (CYP142 [9]): 3.1 ± 0.18 µM

Compound: COc1c(N2C[C@@H]3CCCN[C@@H]3C2)c(F)cc2c(=O)c(C(=O)O)cn(C3CC3)c12 [Moxifloxacin, moxifloxacin, reference compound]
- IC50 (Mtb (Erdman)): 0.33 ± 0.01 µM

Compound: COc1ccc(C(C)Nc2ccc(Cc3ccncc3)cc2)cc1 (stereo not shown) [5o, N-(1-(4-Methoxyphenyl)ethyl)-4-(pyridin-4-ylmethyl)aniline]
- IC50 (CYP125 [10]): 4.2 ± 0.48 µM
- Ki (CYP125 [10]): 1.2 µM
- IC50 (Mtb H37Rv [2]): 2.3 µM
- MIC99 (Mtb H37Rv [5]; [22]): 19 µM (≈ 6.05 µg/mL)
- Kd (CYP125 [8]): 0.8 ± 0.32 µM
- IC50 (Mtb H37Rv [6]; [19]): 0.15 µM
- IC50 (Mtb H37Rv [6]; [20]): 0.59 µM

Compound: O=C(Nc1ccc(Cc2ccncc2)cc1)c1ccccc1 [5a, N-(4-(Pyridin-4-ylmethyl)phenyl)benzamide]
- IC50 (CYP125 [10]): 4.3 ± 0.5 µM
- Ki (CYP125 [10]): 1.3 µM
- MIC99 (Mtb CDC1551 [1]; [21]): > 50 µM
- MIC99 (Mtb CDC1551 [1]; [23]): >50 µM
- IC50 (Mtb CDC1551 [4]; [17]): 19 µM
- IC50 (Mtb CDC1551 [4]; [18]): 38 µM
- MIC99 (Mtb H37Rv [5]; [22]): 25 µM (≈ 7.21 µg/mL)
- Kd (CYP125 [8]): 0.54 ± 0.22 µM
- IC50 (Mtb H37Rv [6]; [19]): 19 µM
- IC50 (Mtb H37Rv [6]; [20]): 38 µM
- Kd (CYP142 [9]): 1.1 ± 0.1 µM

Compound: COc1ccc(CNc2ccc(N(C)c3ccncc3)cc2)cc1 [5n, N^1-(4-Methoxybenzyl)-N^4-methyl-N^4-(pyridin-4-yl)benzene-1,4-diamine]
- IC50 (CYP125 [10]): 12 ± 1.2 µM
- Ki (CYP125 [10]): 3.6 µM
- MIC99 (Mtb H37Rv [5]; [22]): 50 µM (≈ 16 µg/mL)
- Kd (CYP125 [8]): 2.9 ± 0.2 µM
- IC50 (Mtb H37Rv [6]; [19]): 4.7 µM
- IC50 (Mtb H37Rv [6]; [20]): 9.4 µM
- Kd (CYP142 [9]): 0.2 ± 0.01 µM

Compound: NNC(=O)c1ccncc1 [Isoniazid, isoniazid, reference compound]
- MIC90 (H37Rv Mtb; 168 h, MABA 1 week post-compound treatment, glucose-casitone (standard) media, read-out: MIC90 (W1) H37Rv): 0.19 to 0.39 µM (≈ 0.0261 to 0.0535 µg/mL)
- MIC90 (H37Rv Mtb; 336 h, MABA 2 weeks post-compound treatment, read-out: MIC90 (W2) H37Rv): 0.39 µM (≈ 0.0535 µg/mL)
- MIC90 (W1) MDR-TB ([11]; MABA 1 week post-compound treatment, K26b00MR 113): 12.5 to 25 µM
- fold higher value against MDR-TB than H37Rv ([11]; MABA, 1 and 2 weeks): 50–150 fold
- MIC90 ([11]; 168 h, read-out: MIC90 (W1) MDR-TB, MABA 1 week post-compound treatment, K26b00MR 113): 13 to 25 µM (≈ 1.78 to 3.43 µg/mL)
- MIC90 ([11]; 336 h, read-out: MIC90 (W2) MDR-TB, MABA 2 weeks post-compound treatment, K26b00MR 113): 50 µM (≈ 6.86 µg/mL)
- MIC99 (Mtb H37Rv [5]; [22]): < 0.1 µM
- MIC99 (Mtb H37Rv [5]; cholesterol as sole carbon source, 2 weeks post-compound treatment, listed as Inh.): <0.1 µM
- IC50 (Mtb H37Rv [6]; [19]): < 0.1 µM
- IC50 (Mtb H37Rv [6]; [20]): < 0.1 µM
- IC50 [7]: 0.1 ± 0.01 µM

Compound: N-Phenylpyridin-4-amine [2a]
- CYP142 Δλmax (nm) (CYP142 [12]): 4 nm
- CYP125 Δλmax (nm) HS (CYP125 [13]): 0 nm
- Kd (CYP125 [8]): 35 ± 5.8 µM
- Kd (CYP142 [14]): 1.1 ± 0.2 µM

Compound: O=S(=O)(Nc1ccc(Cc2ccncc2)cc1)c1ccccc1 [5j, N-(4-(Pyridin-4-ylmethyl)phenyl)benzenesulfonamide]
- IC50 (CYP125 [10]): 1.5 ± 0.16 µM
- Ki (CYP125 [10]): 0.44 µM
- MIC99 (Mtb CDC1551 [1]; [21]): 25 µM (≈ 8.11 µg/mL)
- IC50 (Mtb H37Rv [2]): 19 µM
- IC50 (Mtb CDC1551 [3]; [15]): 38 µM
- IC50 (Mtb CDC1551 [3]; [16]): 38 µM
- IC50 (Mtb CDC1551 [4]; [17]): 9.4 µM
- IC50 (Mtb CDC1551 [4]; [18]): > 50 µM
- MIC99 (Mtb H37Rv [5]; [22]): 50 µM (≈ 16.2 µg/mL)
- Kd (CYP125 [8]): 0.27 ± 0.02 µM
- IC50 (Mtb H37Rv [6]; [19]): 38 µM
- IC50 (Mtb H37Rv [6]; [20]): 50 µM

Compound: C[C@@H](NC(=O)c1ccc(Cc2ccncc2)cc1)c1ccccc1 [5i, (R)-N-(1-Phenylethyl)-4-(pyridin-4-ylmethyl)benzamide]
- IC50 (CYP125 [10]): 33 ± 3.7 µM
- Ki (CYP125 [10]): 9.8 µM
- MIC99 (Mtb CDC1551 [1]; [21]): 25 µM (≈ 7.91 µg/mL)
- IC50 (Mtb CDC1551 [3]; [15]): 19 µM
- IC50 (Mtb CDC1551 [4]; [17]): 2.3 µM
- IC50 (Mtb CDC1551 [4]; [18]): 38 µM
- MIC99 (Mtb H37Rv [5]; [22]): 25 µM (≈ 7.91 µg/mL)
- Kd (CYP125 [8]): 7.4 ± 1 µM
- IC50 (Mtb H37Rv [6]; [19]): 9.4 µM
- IC50 (Mtb H37Rv [6]; [20]): 4.7 µM
- Kd (CYP142 [9]): 0.64 ± 0.47 µM
